Earlier results, collected in US8173626B2, “Methods, dosing regimens and medications using anti-progestational agents for the treatment of disorders” (Danco Laboratories LLC, priority 2006, dated 2012).
Where two headings read alike, the source gives them in different places.

Experiments:
glucocorticoid receptors = target: T1, glucocorticoid receptors (Homo sapiens, UniProt P04150); conditions: cited from earlier work
T1 sequence (P04150 1-777): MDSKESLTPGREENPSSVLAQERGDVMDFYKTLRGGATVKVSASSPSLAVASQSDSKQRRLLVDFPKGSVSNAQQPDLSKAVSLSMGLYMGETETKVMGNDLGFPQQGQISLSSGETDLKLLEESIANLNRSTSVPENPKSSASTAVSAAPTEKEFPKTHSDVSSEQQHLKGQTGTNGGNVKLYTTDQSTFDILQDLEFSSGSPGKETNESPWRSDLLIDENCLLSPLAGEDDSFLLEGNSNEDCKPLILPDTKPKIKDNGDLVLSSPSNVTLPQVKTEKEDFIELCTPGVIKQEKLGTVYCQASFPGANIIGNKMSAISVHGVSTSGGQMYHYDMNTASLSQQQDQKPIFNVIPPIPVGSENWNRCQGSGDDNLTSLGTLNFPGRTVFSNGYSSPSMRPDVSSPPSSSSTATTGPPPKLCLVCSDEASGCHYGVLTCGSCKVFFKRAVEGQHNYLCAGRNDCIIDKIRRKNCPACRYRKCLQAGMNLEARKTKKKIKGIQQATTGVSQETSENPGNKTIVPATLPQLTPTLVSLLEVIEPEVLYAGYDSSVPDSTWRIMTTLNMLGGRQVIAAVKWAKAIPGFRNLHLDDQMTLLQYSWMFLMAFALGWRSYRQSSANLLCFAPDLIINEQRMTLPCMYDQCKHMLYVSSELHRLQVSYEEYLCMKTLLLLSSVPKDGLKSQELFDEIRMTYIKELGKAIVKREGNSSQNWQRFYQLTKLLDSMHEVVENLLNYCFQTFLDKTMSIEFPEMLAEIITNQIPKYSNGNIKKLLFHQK

breakthrough bleeding = conditions: cited from earlier work; for subjects with irregular or prolonged bleeding: Newton et al.; for days of vaginal bleeding: Tyler et al.

## C[C@@H]1C[C@@H]2C(=C3CCC(=O)C=C31)[C@@H](c1ccc(N(C)C)cc1)C[C@@]1(C)[C@H]2CC[C@@]12CCCO2 [Org 31710, (6α,11β,17β)-11-(4-NMe2-phenyl)-6-Me-4′,5′-dihydrospiro[oestra-4,9-diene-17,2(3′H)-furan]-3-one]
Glucocorticoid receptors
  activity against glucocorticoid receptors: substantially inactive

## (11β,17α)-(4-acetylphenyl)-17,23-epoxy-19,24-dinorchola-4,9,20-trien-3-one [Org 33628]
Glucocorticoid receptors
  activity against glucocorticoid receptors: substantially inactive

## CC(=O)O[C@]1(C(C)=O)CC[C@H]2[C@@H]3C[C@H](C)C4=CC(=O)CC[C@]4(C)[C@H]3CC[C@@]21C [DMPA, depo-medroxyprogesterone acetate]
Breakthrough bleeding; 9-12th month of use
  subjects with irregular or prolonged bleeding: 34%
Breakthrough bleeding; between the first and second injection
  days of vaginal bleeding: around 30 % of days
Breakthrough bleeding; between the second and third injection
  days of vaginal bleeding: ~20 % of days
Breakthrough bleeding; first 3 months of DMPA
  subjects with irregular or prolonged bleeding: 90%
Breakthrough bleeding; first year of use, Toppozada et al.
  discontinuation rate due to breakthrough bleeding: ≤ 40%

## C[C@H]1CC2=CC(=O)CCC2=C2[C@@H]1[C@@H]1CC[C@@]3(CCCO3)[C@@]1(C)C[C@@H]2c1ccc(N(C)C)cc1 [Org 31806, (7β,11β,17β)-11-(4-NMe2-phenyl)-7-Me-4′,5′-dihydrospiro(oestra-4,9-diene-17,2′(3′H)-furan)-3-one]
Glucocorticoid receptors
  activity against glucocorticoid receptors: substantially inactive

## CC(=O)c1ccc([C@H]2C[C@@]3(C)[C@@H](CC[C@@]3(O)C(F)(F)C(F)(F)F)[C@@H]3CCC4=CC(=O)CCC4=C32)cc1 [ZK230211]
Glucocorticoid receptors
  activity against glucocorticoid receptors: substantially inactive
